Measurements reported in the supplement of paper PMC10307832.

Legend:
Test in all cases: relative viability (nuclei count vs DMSO), 5 days (fraction); higher = more cells survive
Tosedostat + Linsitinib = compound: CC(C)C[C@@H](C(=O)N[C@H](C(=O)OC1CCCC1)c1ccccc1)[C@H](O)C(=O)NO [Tosedostat] + C[C@]1(O)C[C@@H](c2nc(-c3ccc4ccc(-c5ccccc5)nc4c3)c3c(N)nccn32)C1 [Linsitinib] (partner 1 µM)
In short: (§1)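 Relative viability divides the nuclei count in treated wells by that in vehicle wells. Lung cancer cell lines were seeded in 1536-well plates, dosed by pin tool the next day, and fixed and stained after 5 days in one step with final 0.05% Triton X-100, 1% formaldehyde and 1 ug/ml Hoechst. Dosing was a single drug or a fixed anchor-drug dose plus five library-drug doses (not always all listed) in √10 steps, and values are medians of duplicate plates imaged at 4×.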

Tosedostat + Vorinostat = compound: CC(C)C[C@@H](C(=O)N[C@H](C(=O)OC1CCCC1)c1ccccc1)[C@H](O)C(=O)NO [Tosedostat] + O=C(CCCCCCC(=O)Nc1ccccc1)NO [Vorinostat] (partner 1 µM)
In short: as §1

Tosedostat + Phenformin = compound: CC(C)C[C@@H](C(=O)N[C@H](C(=O)OC1CCCC1)c1ccccc1)[C@H](O)C(=O)NO [Tosedostat] + N=C(N)NC(=N)NCCc1ccccc1 [Phenformin] (partner 250 µM)
In short: as §1

[1] = compound: CC1=NN=C(O1)C2=NN=C(C=C2)N3CCC(CC3)OC4=C(C=CC(=C4)F)Cl + Cc1nc(NC(=O)N2CCC[C@H]2C(N)=O)sc1-c1ccnc(C(C)(C)C(F)(F)F)c1 [Alpelisib] (partner 2 µM)
In short: as §1

## UMC-11
Tosedostat + Linsitinib; first compound 0.02 µM
  relative viability: 0.995
Tosedostat + Linsitinib; first compound 0.06325 µM
  relative viability: 1.08
Tosedostat + Linsitinib; first compound 0.2 µM
  relative viability: 0.951
Tosedostat + Linsitinib; first compound 0.6325 µM
  relative viability: 0.898
Tosedostat + Linsitinib; first compound 2 µM
  relative viability: 0.976
Tosedostat + Vorinostat; first compound 0.02 µM
  relative viability: 0.459
Tosedostat + Vorinostat; first compound 0.06325 µM
  relative viability: 0.459
Tosedostat + Vorinostat; first compound 0.2 µM
  relative viability: 0.372
Tosedostat + Vorinostat; first compound 0.6325 µM
  relative viability: 0.388
Tosedostat + Vorinostat; first compound 2 µM
  relative viability: 0.391
Tosedostat + Phenformin; first compound 0.02 µM
  relative viability: 0.353
Tosedostat + Phenformin; first compound 0.06325 µM
  relative viability: 0.328
Tosedostat + Phenformin; first compound 0.2 µM
  relative viability: 0.298
Tosedostat + Phenformin; first compound 0.6325 µM
  relative viability: 0.282
Tosedostat + Phenformin; first compound 2 µM
  relative viability: 0.278
[1]; first compound 0.253 µM
  relative viability: 0.744
[1]; first compound 0.8 µM
  relative viability: 0.679
[1]; first compound 2.53 µM
  relative viability: 0.687
[1]; first compound 8 µM
  relative viability: 0.667
